The values below are quoted from earlier work in patent US11382901B2, “Tropicamide-based ophthalmic formulations” (FOR HEALTH PHARMA S.R.L., priority 2017, dated 2022).

Data set [1] concerns RAW 264.7 cells (murine macrophage-like).
In data set [2] the test system is NIH/3T3 cells (murine fibroblasts).

For the substance tyloxapol, the in vitro toxicity result in data set [1] and in data set [2] was “considerable in vitro toxicity” in each case.
